This test deals with T1, p38α (Homo sapiens, UniProt Q16539).
T1 construct: p38 MAP Kinases are recombinant human full-length proteins with an amino-terminal GST fusion; GST (N); purchased Upstate (Charlottesville, Va.); host or cells: E. coli
T1 sequence (Q16539 whole entry, the tested form may be a part): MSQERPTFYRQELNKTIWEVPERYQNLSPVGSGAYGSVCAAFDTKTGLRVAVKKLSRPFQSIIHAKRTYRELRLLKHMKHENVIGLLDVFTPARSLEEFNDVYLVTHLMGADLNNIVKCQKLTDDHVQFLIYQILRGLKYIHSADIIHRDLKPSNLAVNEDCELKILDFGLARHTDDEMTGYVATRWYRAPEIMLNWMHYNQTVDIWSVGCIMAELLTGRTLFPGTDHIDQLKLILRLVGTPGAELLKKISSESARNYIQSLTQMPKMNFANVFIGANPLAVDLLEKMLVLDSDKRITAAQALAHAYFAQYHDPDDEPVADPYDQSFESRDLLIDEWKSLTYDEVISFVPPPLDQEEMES
The test can be described thus: p38 MAP Kinase assay, ATF2 phosphorylation (ELISA). The test is classed as biochemical. Conditions: 40 μM ATP. The text has this:
Compounds of the invention are screened for the ability to inhibit ATF2 phosphorylation by p38 MAP Kinase in vitro. The ability of compounds to inhibit ATF2 phosphorylation in this in vitro assay is correlated with the inhibition of p38 MAP Kinase and TNFα expression in vivo, and is therefore an indicator of potential in vivo therapeutic activity (Raingeaud, J., et al, J. Biol. Chem., 270: 7420-7426, 1995, Brinkman, M. N., et al, J. Bil. Chem. 274: 30882-30886, 1999 and Fuchs, S. Y. et al, J. Biol. Chem. 275: 12560-12564, 2000).
All kinases and the substrate ATF2 are acquired from Upstate (Charlottesville, Va.). p38 MAP Kinases are recombinant human full-length proteins with an amino-terminal GST fusion, expressed in and purified from E. coli. ATF2 is a GST fusion protein containing amino acids 19-96 of human ATF2 expressed in E. coli. All proteins were aliquoted and stored at −80° C.
p38 MAP Kinase assays are performed using an assay buffer containing 25 mM HEPES, pH 7.5, 10 mM MgCl2, 2 mM DTT, 20 mM β-glycerophosphate, 0.1 mM Na3VO4, 40 μM ATP and 1.25 μM of ATF2, together with 6 ng of p38α protein, 12 ng p38β protein, 1.5 ng p38γ, or 0.4 ng JNK2α2. Compounds are serially diluted in DMSO and 2 μL of test compound at 25× final concentration is used. The vehicle control receives DMSO only. Test compounds are pre-incubated with 20 μl of enzyme in kinase buffer (25 mM HEPES, pH 7.5, 10 mM MgCl2, 2 mM DTT, 20 mM 3-glycerophosphate and 0.1 mM Na3VO4) at room temperature for 15 minutes. […] The reactions are incubated for 30 minutes at 37° C. and terminated by the addition of 18 μl of 200 mM EDTA. An ELISA method is used to measure the phosphorylation of ATF2 at Thr 69. High binding 96-well plates (Corning 3369) are coated with 50 μl of kinase reaction for 1 hour at 37° C. The coated plates are washed with 200 μl washing buffer (25 mM Tris HCl, pH 8.3, 192 mM glycine, 0.1% SDS and 0.05% Tween-20) three times. The plates are then washed three times with SuperBlock in TBS (Pierce, 37535). After blocking, plates are incubated with 50 μl of rabbit anti-phospho-ATF2 antibody (Cell Signaling, 9221 L, 1:500) for 30 minutes at 37° C. Plates are washed three times with washing buffer prior to incubation with 50 μl HRP-conjugated goat anti-rabbit antibody (Cell Signaling, 7074, 1:500) for 30 minutes at 37° C. Plates are then washed three times with washing buffer before incubation with 50 μl of Ultra TMB-ELISA (Pierce, 34028) for 8 minutes at room temperature. Finally, 50 μl of phosphoric acid (1 M) is added to stop reactions and plate absorbance is read at 450 nm on a SpectraMax 250 plate reader.
In turn, `O[C@@H]1CCN(c2nccc(-c3c(-c4ccc(F)cc4)nc4occn34)n2)C1` [CI] displayed an IC50 of 1420 nM.
The compound `CC(C)CNC(=O)Cc1csc2nc(-c3ccc(F)cc3)c(-c3ccnc(NCC(C)C)n3)n12` [CLXVII] showed an IC50 of 1000 nM.
As for `c1ccc(-c2nc3sccn3c2-c2ccnc(N3CCOCC3)n2)cc1` [CXXXIV], the figure is 113 nM.
Next, `c1ccc(-c2nc3sccn3c2-c2ccnc(NCc3ccco3)n2)cc1` [CLIII]: 15.6 nM; `OC1CCN(c2nccc(-c3c(-c4ccc(F)cc4)nc4sccn34)n2)CC1` [CLXXXIV]: 594 nM; `C[C@H](O)CNc1nc(N)cc(-c2c(-c3ccc(F)cc3)nc3sccn23)n1` [CCXXV]: 1050 nM.
Next, `COc1cccc(-c2nc3sccn3c2-c2ccnc(N[C@H](CO)[C@H](O)c3ccccc3)n2)c1` [CXCVI]: 819 nM; `OCC(CO)Nc1nccc(-c2c(-c3ccc(F)cc3)nc3sccn23)n1` [CLXXXV]: 87.1 nM.
`O=C(Cc1csc2nc(-c3ccc(F)cc3)c(-c3ccnc(NCc4ccccc4)n3)n12)NCc1ccccc1` [CLXV] registered an IC50 of 1000 nM.
Consider `Cc1cn2c(-c3ccnc(S(C)(=O)=O)n3)c(-c3ccc(F)cc3)nc2s1` [CLXXXVII], for which the IC50 was found to be 1850 nM.
In the case of `CC(O)CN(CC(C)O)c1nccc(-c2c(-c3ccc(F)cc3)nc3sccn23)n1` (stereo not drawn) [CLXXVIII], half-maximal inhibition (IC50) was put at 1000 nM.
Compound `CCOC(=O)Cc1csc2nc(-c3ccc(F)cc3)c(-c3ccnc(NCc4ccco4)n3)n12` [CLXIII] showed an IC50 of 1000 nM.
Next, `Cc1csc2nc(-c3ccc(F)cc3)c(-c3ccnc(NC(CO)CO)n3)n12` [CCIV]: 10100 nM; `c1ccc(-c2nc3sccn3c2-c2ccnc(NCC3CCCCC3)n2)cc1` [CXXXVII]: 65.7 nM; `CN(CCO)c1nccc(-c2c(-c3ccc(F)cc3)nc3sccn23)n1` [CLXXVI]: 1000 nM.
On to `c1ccc(-c2nc3sccn3c2-c2ccnc(NC3CC3)n2)cc1` [CLVII], for which half-maximal inhibition (IC50) was put at 5.29 nM.
`CCCNc1nc(N)cc(-c2c(-c3ccc(F)cc3)nc3sccn23)n1` [CCXXVII] displayed an IC50 of 1330 nM.
For `COc1cccc(-c2nc3sccn3c2-c2ccnc(NCCOCCO)n2)c1` [CXCIX], inhibition was half-maximal at 428 nM (IC50).
Turning to `c1ccc(-c2nc3sccn3c2-c2ccnc(NCc3cccs3)n2)cc1` [CXXXVIII], the IC50 turned out to be 10.2 nM.
The compound `OCC(CO)Nc1nccc(-c2c(-c3ccc(F)c(F)c3)nc3sccn23)n1` [CCVI] came in with a half-inhibitory concentration (IC50) of 609 nM.
As to `CSc1nccc(-c2c(-c3ccccc3)nc3sccn23)n1` [CXXX], half-maximal inhibition (IC50) required 228 nM.
As for `CSc1nc(Nc2nccc(-c3c(-c4ccc(F)cc4)nc4occn34)n2)n[nH]1` [LXXVII], the figure is 529 nM.
`OCCN(CCO)c1nccc(-c2c(-c3ccc(F)cc3)nc3sccn23)n1` [CLXXVII] came in with an IC50 of 793 nM.
`CCOC(=O)Cc1csc2nc(-c3ccc(F)cc3)c(-c3ccnc(NCC4CCCCC4)n3)n12` [CLXI] returned an IC50 of 1000 nM.
As for `COc1cccc(-c2nc3sccn3c2-c2ccnc(NC(C)CO)n2)c1` (stereo not drawn) [CXCV], the half-inhibitory concentration (IC50) came to 44.7 nM.
As for `CN(CCO)c1nccc(-c2c(-c3ccc(F)cc3)nc3occn23)n1` [XCVI], the figure is 969 nM; as for `Cc1ccc(-c2nc3sccn3c2-c2ccnc(NC(CO)CO)n2)cc1` [CCX], 558 nM; as for `CC(CO)(CO)Nc1nccc(-c2c(-c3ccc(F)cc3)nc3sccn23)n1` [CLXXIX], 192 nM.
In the case of `c1ccc(CNc2nccc(-c3c(-c4ccccc4)nc4sccn34)n2)cc1` [CXXXI], it took 28.5 nM to reach half-maximal inhibition (IC50).
Compound `OCCN(Cc1ccccc1)c1nccc(-c2c(-c3ccc(F)cc3)nc3sccn23)n1` [CXCII] had an IC50 of 213 nM.
Next, `Fc1ccc(-c2nc3sccn3c2-c2ccnc(NCc3cccs3)n2)cc1` [CLII]: 6.14 nM.
Regarding `COc1ccc(CNc2nccc(-c3c(-c4ccccc4)nc4sccn34)n2)cc1` [CXXXIII], the IC50 was 81.4 nM.
Consider `COc1cccc(-c2nc3sccn3c2-c2ccnc(NCC(O)CO)n2)c1` (stereo not drawn) [CXCVIII], for which the IC50 was found to be 649 nM.
`CCOC(=O)Cc1csc2nc(-c3ccc(F)cc3)c(-c3ccnc(NCC(C)C)n3)n12` [CLXII] showed an IC50 of 1000 nM.
In the case of `NC1CCN(c2nccc(-c3c(-c4ccc(F)cc4)nc4occn34)n2)CC1` [XC], inhibition was half-maximal at 866 nM (IC50).
As for `Nc1nccc(-c2c(-c3ccc(F)cc3)nc3occn23)n1` [CXXIX], the figure is 97.4 nM; as for `OC[C@@H](Nc1nccc(-c2c(-c3ccc(F)cc3)nc3sccn23)n1)[C@H](O)c1ccccc1` [CXCIV], 565 nM.
Consider `COc1ccc(CNc2nccc(-c3c(-c4ccc(F)cc4)nc4sccn34)n2)cc1` [CXLV], for which it took 65.5 nM to reach half-maximal inhibition (IC50).
Compound `CCOC(=O)Cc1csc2nc(-c3ccc(F)cc3)c(-c3ccnc(NCc4ccccc4)n3)n12` [CLX] showed an IC50 of 1000 nM.
Regarding `Nc1cc(-c2c(-c3ccc(F)cc3)nc3sccn23)nc(NC2CC2)n1` [CCXXIII], the IC50 came to 2080 nM.
In the case of `CSc1nccc(-c2c(-c3ccc(F)cc3)nc3sccn23)n1` [CXXXIX, 6-(4-fluorophenyl)-5-(2-methylsulfanyl-pyrimidin-4-yl)-imidazo[2,1-b]thiazole], half-maximal inhibition (IC50) was put at 635 nM.
Compound `Fc1ccc(-c2nc3sccn3c2-c2ccnc(NCc3ccccc3)n2)cc1` [CXLI] showed an IC50 of 4.92 nM.
Take `Nc1cc(-c2c(-c3ccc(F)cc3)nc3sccn23)nc(NCC2CC2)n1` [CCXXIV]: the IC50 worked out at 1570 nM.
Turning to `CS(=O)(=O)c1nccc(-c2c(-c3ccc(F)cc3)nc3occn23)n1` [XI, 6-(4-fluorophenyl)-5-[2-(methylsulfonyl)pyrimidin-4-yl]imidazo[2,1-b][1,3]oxazole], the midpoint of inhibition, the IC50, lay at 4430 nM.
In turn, `OCC(CO)Nc1nccc(-c2c(-c3ccc(F)cc3)nc3occn23)n1` [XIII] came in with an IC50 of 13 nM.
The compound `COC(=O)C(Cc1ccccc1)Nc1nccc(-c2c(-c3ccc(F)cc3)nc3sccn23)n1` (stereo not drawn) [CLXIX] came in with an IC50 of 267 nM.
In the case of `COc1cccc(-c2nc3sccn3c2-c2ccnc(NCC(C)O)n2)c1` (stereo not drawn) [CXCVII], half-maximal inhibition (IC50) required 61.2 nM.
`O[C@H]1CCN(c2nccc(-c3c(-c4ccc(F)cc4)nc4occn34)n2)C1` [CII] yielded an IC50 of 927 nM.
Compound `CNCCNc1nccc(-c2c(-c3ccc(F)cc3)nc3occn23)n1` [XCII] showed an IC50 of 3330 nM.
The compound `c1ccc(-c2nc3sccn3c2-c2ccncn2)cc1` [CLXVIII] gave an IC50 of 1460 nM.
`c1ccc(-c2nc3sccn3c2-c2ccnc(N3CCCCC3)n2)cc1` [CXXXV] came in with an IC50 of 396 nM.
`Cc1csc2nc(-c3ccc(F)cc3)c(-c3ccnc(N[C@H](CO)C(C)C)n3)n12` [CCV] showed an IC50 of 3190 nM.
Next, `Nc1cc(-c2c(-c3ccc(F)cc3)nc3sccn23)nc(NC[C@H](O)c2ccccc2)n1` [CCXXX]: 2570 nM; `CC(C)[C@@H](Nc1nccc(-c2c(-c3ccc(F)cc3)nc3sccn23)n1)C(=O)OC(C)(C)C` [CLXXIII]: 81.4 nM.
In turn, `c1ccc(-c2nc3sccn3c2-c2ccnc(NCc3ccccn3)n2)cc1` [CLIX] showed an IC50 of 91.1 nM.
Compound `COc1ccc(-c2nc3sccn3c2-c2ccnc(SC)n2)cc1` [CXC] showed an IC50 of 3040 nM.
Consider `Fc1ccc(-c2nc3sccn3c2-c2ccnc(N3CCOCC3)n2)cc1` [CXLVI], for which the IC50 was 129 nM.
As for `O=C(Cc1csc2nc(-c3ccc(F)cc3)c(-c3ccnc(NCC4CCCCC4)n3)n12)NCC1CCCCC1` [CLXVI], the IC50 turned out to be 1000 nM.
Compound `CC(C)[C@@H](CO)Nc1nccc(-c2c(-c3ccc(C(F)(F)F)cc3)nc3sccn23)n1` [CCII] came in with an IC50 of 924 nM.
As for `OCCN1CCN(c2nccc(-c3c(-c4ccc(F)cc4)nc4sccn34)n2)CC1` [CLXXXIII], the figure is 1000 nM; as for `CC(C)(C)OC(=O)CNc1nccc(-c2c(-c3ccc(F)cc3)nc3sccn23)n1` [CLVI], 58.6 nM.
`CC(C)C[C@H](CO)Nc1nccc(-c2c(-c3ccc(F)cc3)nc3sccn23)n1` [CLXXXII] had an IC50 of 347 nM.
`COc1cccc(-c2nc3sccn3c2-c2ccnc(SC)n2)c1` [CLXXV] registered an IC50 of 3390 nM.
